# How the values were obtained:
# Assay in all cases: KinaseProfiler panel
# Assay type in all cases: biochemical
# Details in all cases: activity remaining
# [1] = target: Txk(h) (Homo sapiens (Human), UniProt P42681); set-up: dose or concentration left out as unconfirmed
# [2] = target: PRKG2(h) (Homo sapiens (Human), UniProt Q13237); set-up: dose or concentration left out as unconfirmed
# [3] = target: EphA4(h) (Homo sapiens (Human), UniProt P54764); set-up: dose or concentration left out as unconfirmed
# [4] = target: Plk1(h) (Homo sapiens (Human), UniProt P53350); set-up: dose or concentration left out as unconfirmed
# [5] = target: Lyn(h) (Homo sapiens (Human), UniProt P07948); set-up: dose or concentration left out as unconfirmed
# [6] = target: Pim-3(h) (Homo sapiens (Human), UniProt Q86V86); set-up: dose or concentration left out as unconfirmed
# [7] = target: PAK2(h) (Homo sapiens (Human), UniProt Q13177); set-up: dose or concentration left out as unconfirmed
# [8] = target: DYRK1B(h) (Homo sapiens (Human), UniProt Q9Y463); set-up: dose or concentration left out as unconfirmed
# [9] = target: MEKK2(h) (Homo sapiens (Human), UniProt Q9Y2U5)
# [10] = target: NEK11(h) (Homo sapiens (Human), UniProt Q8NG66); set-up: dose or concentration left out as unconfirmed
# [11] = target: DMPK(h) (Homo sapiens (Human), UniProt Q09013); set-up: dose or concentration left out as unconfirmed
# [12] = target: MLK2(h) (Homo sapiens (Human), UniProt Q02779); set-up: dose or concentration left out as unconfirmed
# [13] = target: SAPK3(h) (Homo sapiens (Human), UniProt P53778); set-up: dose or concentration left out as unconfirmed
# [14] = target: TAO1(h) (Homo sapiens (Human), UniProt Q7L7X3); set-up: dose or concentration left out as unconfirmed
# [15] = target: PhKγ1(h) (Homo sapiens (Human), UniProt Q16816); set-up: dose or concentration left out as unconfirmed
# [16] = target: BrSK2(h) (Homo sapiens (Human), UniProt Q8IWQ3); set-up: dose or concentration left out as unconfirmed
# [17] = target: JNK3(h) (Homo sapiens (Human), UniProt P53779); set-up: dose or concentration left out as unconfirmed
# [18] = target: NEK3(h) (Homo sapiens (Human), UniProt P51956); set-up: dose or concentration left out as unconfirmed
# [19] = target: Bmx(h) (Homo sapiens (Human), UniProt P51813); set-up: dose or concentration left out as unconfirmed
# [20] = target: TLK2(h) (Homo sapiens (Human), UniProt Q86UE8)
# [21] = target: CaMKK2(h) (Homo sapiens (Human), UniProt Q96RR4); set-up: dose or concentration left out as unconfirmed
# [22] = target: PKCα(h) (Homo sapiens (Human), UniProt P17252); set-up: dose or concentration left out as unconfirmed
# [23] = target: PEK(h) (Homo sapiens (Human), UniProt Q9NZJ5); set-up: dose or concentration left out as unconfirmed
# [24] = target: Axl(h) (Homo sapiens (Human), UniProt P30530); set-up: dose or concentration left out as unconfirmed
# [25] = target: DRAK1(h) (Homo sapiens (Human), UniProt Q9UEE5)
# [26] = target: IKKα(h) (Homo sapiens (Human), UniProt O15111); set-up: dose or concentration left out as unconfirmed
# [27] = target: FGFR4(h) (Homo sapiens (Human), UniProt P22455); set-up: dose or concentration left out as unconfirmed
# [28] = target: TSSK4(h) (Homo sapiens (Human), UniProt Q6SA08); set-up: dose or concentration left out as unconfirmed
# [29] = target: MYO3B(h) (Homo sapiens (Human), UniProt Q8WXR4); set-up: dose or concentration left out as unconfirmed
# [30] = target: NEK6(h) (Homo sapiens (Human), UniProt Q9HC98); set-up: dose or concentration left out as unconfirmed
# [31] = target: PRK2(h) (Homo sapiens (Human), UniProt Q16513); set-up: dose or concentration left out as unconfirmed
# [32] = target: GCK(h) (Homo sapiens (Human), UniProt Q12851); set-up: dose or concentration left out as unconfirmed
# [33] = target: DYRK2(h) (Homo sapiens (Human), UniProt Q92630); set-up: dose or concentration left out as unconfirmed
# DYRK2(h), sequence (Q92630 whole entry): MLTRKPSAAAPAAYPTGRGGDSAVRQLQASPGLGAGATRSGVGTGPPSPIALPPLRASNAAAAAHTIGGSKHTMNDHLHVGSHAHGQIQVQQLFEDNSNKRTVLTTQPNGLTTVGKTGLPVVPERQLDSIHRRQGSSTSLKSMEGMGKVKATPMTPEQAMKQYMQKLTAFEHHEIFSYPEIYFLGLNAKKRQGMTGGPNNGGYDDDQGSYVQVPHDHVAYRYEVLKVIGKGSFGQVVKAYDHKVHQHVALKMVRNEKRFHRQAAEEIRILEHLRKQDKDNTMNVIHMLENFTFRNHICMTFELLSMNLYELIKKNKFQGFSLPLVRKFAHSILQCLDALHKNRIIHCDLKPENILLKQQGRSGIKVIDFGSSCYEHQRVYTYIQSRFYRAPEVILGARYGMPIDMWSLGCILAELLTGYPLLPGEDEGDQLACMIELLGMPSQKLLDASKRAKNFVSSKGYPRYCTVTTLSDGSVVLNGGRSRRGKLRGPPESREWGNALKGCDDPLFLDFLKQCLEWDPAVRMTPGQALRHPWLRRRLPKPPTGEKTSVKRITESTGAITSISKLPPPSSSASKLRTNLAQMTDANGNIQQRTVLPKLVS
# NEK6(h), sequence (Q9HC98 whole entry): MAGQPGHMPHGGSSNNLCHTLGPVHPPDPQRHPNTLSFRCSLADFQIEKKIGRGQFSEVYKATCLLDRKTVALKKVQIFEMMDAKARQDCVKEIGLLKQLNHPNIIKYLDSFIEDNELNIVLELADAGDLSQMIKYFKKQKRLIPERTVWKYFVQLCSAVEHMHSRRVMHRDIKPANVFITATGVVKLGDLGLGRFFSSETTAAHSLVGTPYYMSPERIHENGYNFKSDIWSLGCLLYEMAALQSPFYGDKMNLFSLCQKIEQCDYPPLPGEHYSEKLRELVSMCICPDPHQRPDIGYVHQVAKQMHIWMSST
# Bmx(h), sequence (P51813 whole entry): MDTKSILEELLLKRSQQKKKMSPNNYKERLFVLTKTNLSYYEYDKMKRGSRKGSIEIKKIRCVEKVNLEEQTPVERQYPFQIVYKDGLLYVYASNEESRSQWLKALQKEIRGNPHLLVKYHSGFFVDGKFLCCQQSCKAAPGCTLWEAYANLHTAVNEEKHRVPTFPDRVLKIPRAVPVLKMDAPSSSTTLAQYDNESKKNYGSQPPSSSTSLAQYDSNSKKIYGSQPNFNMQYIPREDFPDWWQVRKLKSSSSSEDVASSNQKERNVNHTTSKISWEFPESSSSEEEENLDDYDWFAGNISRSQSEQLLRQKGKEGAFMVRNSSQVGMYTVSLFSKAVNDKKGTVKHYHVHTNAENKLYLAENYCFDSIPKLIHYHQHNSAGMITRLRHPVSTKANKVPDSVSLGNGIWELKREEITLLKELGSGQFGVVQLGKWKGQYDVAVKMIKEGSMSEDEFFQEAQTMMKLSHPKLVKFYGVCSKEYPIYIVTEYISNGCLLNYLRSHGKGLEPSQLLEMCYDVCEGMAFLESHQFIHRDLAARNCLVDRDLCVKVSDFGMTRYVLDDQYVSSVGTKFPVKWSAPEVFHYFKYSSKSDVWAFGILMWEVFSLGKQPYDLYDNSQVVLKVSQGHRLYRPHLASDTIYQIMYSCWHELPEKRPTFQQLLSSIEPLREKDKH
# PRKG2(h), sequence (Q13237 whole entry): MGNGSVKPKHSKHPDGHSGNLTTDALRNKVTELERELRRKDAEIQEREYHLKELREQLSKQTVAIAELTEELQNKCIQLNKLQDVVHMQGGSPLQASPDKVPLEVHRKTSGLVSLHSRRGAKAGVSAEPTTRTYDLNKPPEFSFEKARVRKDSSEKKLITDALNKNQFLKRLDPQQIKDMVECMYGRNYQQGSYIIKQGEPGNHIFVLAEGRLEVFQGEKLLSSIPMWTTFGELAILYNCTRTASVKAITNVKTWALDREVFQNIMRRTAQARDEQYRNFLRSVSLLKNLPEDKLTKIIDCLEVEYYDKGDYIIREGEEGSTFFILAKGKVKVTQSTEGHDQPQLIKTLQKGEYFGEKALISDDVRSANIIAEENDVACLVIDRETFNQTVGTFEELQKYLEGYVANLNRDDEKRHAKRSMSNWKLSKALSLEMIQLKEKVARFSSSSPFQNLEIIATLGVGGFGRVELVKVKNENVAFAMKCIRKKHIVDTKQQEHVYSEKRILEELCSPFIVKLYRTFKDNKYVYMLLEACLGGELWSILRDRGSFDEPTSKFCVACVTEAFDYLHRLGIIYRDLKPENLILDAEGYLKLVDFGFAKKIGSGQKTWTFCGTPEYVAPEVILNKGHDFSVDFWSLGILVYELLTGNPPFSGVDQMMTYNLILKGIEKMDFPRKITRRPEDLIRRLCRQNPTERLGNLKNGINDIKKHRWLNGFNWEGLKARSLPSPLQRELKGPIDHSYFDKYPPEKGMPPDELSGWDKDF
# DYRK1B(h), sequence (Q9Y463 whole entry): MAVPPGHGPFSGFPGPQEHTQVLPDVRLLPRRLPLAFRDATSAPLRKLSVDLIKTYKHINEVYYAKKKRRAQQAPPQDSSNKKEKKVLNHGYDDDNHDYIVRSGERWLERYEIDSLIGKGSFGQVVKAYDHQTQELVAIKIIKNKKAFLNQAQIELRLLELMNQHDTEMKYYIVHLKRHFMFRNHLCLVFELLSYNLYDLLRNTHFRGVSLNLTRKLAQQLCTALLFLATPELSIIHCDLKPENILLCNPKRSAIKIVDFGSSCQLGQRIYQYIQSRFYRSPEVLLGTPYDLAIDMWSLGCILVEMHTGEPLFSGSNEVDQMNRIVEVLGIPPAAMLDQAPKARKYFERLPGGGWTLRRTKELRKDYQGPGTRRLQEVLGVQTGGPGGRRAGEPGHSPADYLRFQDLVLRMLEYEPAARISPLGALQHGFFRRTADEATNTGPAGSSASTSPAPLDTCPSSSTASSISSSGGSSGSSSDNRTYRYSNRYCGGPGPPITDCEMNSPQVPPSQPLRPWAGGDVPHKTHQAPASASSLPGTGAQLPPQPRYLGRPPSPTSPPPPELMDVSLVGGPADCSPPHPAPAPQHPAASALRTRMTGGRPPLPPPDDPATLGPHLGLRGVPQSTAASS
# SAPK3(h), sequence (P53778 whole entry): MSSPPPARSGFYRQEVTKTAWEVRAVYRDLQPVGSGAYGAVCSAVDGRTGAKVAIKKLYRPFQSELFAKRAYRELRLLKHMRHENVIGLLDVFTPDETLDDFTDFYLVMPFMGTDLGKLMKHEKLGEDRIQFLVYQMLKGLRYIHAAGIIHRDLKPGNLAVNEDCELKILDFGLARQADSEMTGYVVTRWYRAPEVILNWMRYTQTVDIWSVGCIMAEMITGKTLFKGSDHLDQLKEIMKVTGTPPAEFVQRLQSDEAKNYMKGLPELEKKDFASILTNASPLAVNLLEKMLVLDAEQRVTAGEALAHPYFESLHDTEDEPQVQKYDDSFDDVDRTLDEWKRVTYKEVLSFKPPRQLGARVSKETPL
# PhKγ1(h), sequence (Q16816 whole entry): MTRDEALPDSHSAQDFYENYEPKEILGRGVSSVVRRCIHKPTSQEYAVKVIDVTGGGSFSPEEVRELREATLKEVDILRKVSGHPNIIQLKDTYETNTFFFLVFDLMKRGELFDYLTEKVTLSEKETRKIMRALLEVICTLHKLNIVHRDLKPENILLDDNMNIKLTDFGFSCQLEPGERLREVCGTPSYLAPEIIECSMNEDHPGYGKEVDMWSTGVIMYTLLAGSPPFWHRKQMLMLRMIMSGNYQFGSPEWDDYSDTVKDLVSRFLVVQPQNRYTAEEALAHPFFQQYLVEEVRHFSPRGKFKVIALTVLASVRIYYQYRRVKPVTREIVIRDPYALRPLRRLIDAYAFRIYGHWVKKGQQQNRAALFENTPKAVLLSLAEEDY
structure (smiles),measurement,setting,value
"Cc1cc2c(-c3ccc(NC(=O)[C@H](N)CC(C)(C)C)cc3C)ccnc2[nH]1 [Compound F-90, (2R)-2-Amino-4,4-dimethyl-N-[3-methyl-4-(2-methyl-1H-pyrrolo[2,3-b]pyridin-4-yl)phenyl]pentanamide]",% Activity,[1],110%
same,% Activity,[2],110%
same,% Activity,[3],92%
same,% Activity,[4],111%
same,% Activity,[5],80%
same,% Activity,[6],103%
same,% Activity,[7],95%
same,% Activity,[8],108%
same,% Activity,[9],122%
same,% Activity,[10],97%
same,% Activity,[11],93%
same,% Activity,[12],77%
same,% Activity,[13],113%
same,% Activity,[14],83%
same,% Activity,[15],101%
same,% Activity,[16],83%
same,% Activity,[17],88%
same,% Activity,[18],110%
same,% Activity,[19],97%
same,% Activity,[20],92%
same,% Activity,[21],96%
same,% Activity,[22],92%
same,% Activity,[23],91%
same,% Activity,[24],91%
same,% Activity,[25],80%
same,% Activity,[26],98%
same,% Activity,[27],114%
same,% Activity,[28],117%
same,% Activity,[29],79%
same,% Activity,[30],86%
same,% Activity,[31],92%
same,% Activity,[32],118%
same,% Activity,[33],101%

# Source: US20250243196A1, “CITRON KINASE INHIBITORS” (The Cleveland Clinic Foundation, priority 2021, published 2025)
